Assay [1] addresses T1, GLS1 (purified recombinant human GAC) (Homo sapiens, UniProt O94925).
T1 sequence (O94925 55-598 isoform O94925-3 limits assumed): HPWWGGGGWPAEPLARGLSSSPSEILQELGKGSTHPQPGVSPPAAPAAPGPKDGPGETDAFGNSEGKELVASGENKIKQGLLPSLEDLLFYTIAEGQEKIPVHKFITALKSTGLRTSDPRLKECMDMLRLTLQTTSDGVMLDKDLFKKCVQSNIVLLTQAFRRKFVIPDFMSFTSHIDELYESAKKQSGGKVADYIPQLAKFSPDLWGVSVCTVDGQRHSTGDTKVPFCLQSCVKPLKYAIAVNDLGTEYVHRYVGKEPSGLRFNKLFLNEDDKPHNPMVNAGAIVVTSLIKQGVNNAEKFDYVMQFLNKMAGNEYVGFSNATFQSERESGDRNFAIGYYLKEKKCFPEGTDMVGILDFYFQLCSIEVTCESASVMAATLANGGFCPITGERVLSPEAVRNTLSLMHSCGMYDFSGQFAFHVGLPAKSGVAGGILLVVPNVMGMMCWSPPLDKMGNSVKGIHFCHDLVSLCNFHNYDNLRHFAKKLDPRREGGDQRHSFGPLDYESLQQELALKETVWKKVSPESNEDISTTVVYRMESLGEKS
The assay can be described thus: GLS1 enzymatic activity assay (dual-coupled, Amplex UltraRed/resorufin). Format: biochemical. Put shortly:
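In this coupled fluorometric format, phosphate-activated GAC (2 nM, 50 mM phosphate) is pre-exposed to compound for 10 min before 1 mM glutamine addition. Product is tracked as resorufin (530/590 nm) over time or at 20 min, and potency is derived by logistic fitting.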

In another assay the test system is A549 cells. The assay can be described thus: A549 proliferation (viability) assay, Cell Titer Fluor, 72 hours. Format: cell-based. The conditions noted are these: Homo sapiens. Put shortly: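 1000 A549 cells/well, RPMI 1640/10% dialyzed FBS, 24 h attach; compound 72 h, 0.5% DMSO, 37 °C/5% CO2; Cell Titer Fluor fluorescence; EC50 via 4-parameter logistic.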

As a reminder, the IC50 is the concentration at which inhibition is half-maximal. Broadly, the EC50 is the midpoint of the concentration-response curve. Low values mean higher potency in that assay, high ones lower potency in that assay. As for `O=C(CN1CCCC(F)(F)C1)Nc1ccn(CCC(F)Cn2cc(C(=O)NCc3cccc(OC(F)(F)F)c3)nn2)c(=O)c1` (centres unmarked) [Example 274, 1-(4-{4-[2-(3,3-difluoropiperidin-1-yl)acetamido]-2-oxo-1,2-dihydropyridin-1-yl}-2-fluorobutyl)-N-{[3-(trifluoromethoxy)phenyl]methyl}-1H-1,2,3-triazole-4-carboxamide], in assay [1], the IC50 is less than 100 nM. The same compound had an EC50 in the assay with A549 cells of less than 100 nM.
On to `O=C(Cc1ccccc1)Nc1ccn(CCCCCc2nnc(NC(=O)Cc3ccccc3)s2)c(=O)n1` [Example 74, N-(2-oxo-1-{5-[5-(2-phenylacetamido)-1,3,4-thiadiazol-2-yl]pentyl}-1,2-dihydropyrimidin-4-yl)-2-phenylacetamide], for which the IC50 in assay [1] is 500 to 5000 nM. In addition, the EC50 in the assay with A549 cells is more than 5000 nM.
For `CCOC(=O)N1CCC(CC(=O)Nc2ccn(CCC(F)Cn3cc(C(=O)NCc4cccc(OC(F)(F)F)c4)nn3)c(=O)c2)CC1` (centres unmarked) [Example 281, ethyl 4-{[(1-{3-fluoro-4-[4-({[3-(trifluoromethoxy)phenyl]methyl}carbamoyl)-1H-1,2,3-triazol-1-yl]butyl}-2-oxo-1,2-dihydropyridin-4-yl)carbamoyl]methyl}piperidine-1-carboxylate] the same measures were less than 100 nM and less than 100 nM.
For `O=C(Cc1ccccc1)Nc1ccn(CC[C@H](F)Cn2cc(C(=O)NCc3cc(C(F)(F)F)ccn3)nn2)c(=O)c1F` [Example 125, (S)-1-(2-fluoro-4-(3-fluoro-2-oxo-4-(2-phenylacetamido)pyridin-1(2H)-yl)butyl)-N-((4-(trifluoromethyl)pyridin-2-yl)methyl)-1H-1,2,3-triazole-4-carboxamide] the same measures were less than 100 nM and less than 100 nM.
For `O=C(Cc1ccccc1)Nc1ccn(CCC(F)Cn2cc(C(=O)NCc3ccc(C(F)(F)F)cn3)nn2)c(=O)c1F` (centres unmarked) [Example 379, 1-{2-fluoro-4-[3-fluoro-2-oxo-4-(2-phenylacetamido)-1,2-dihydropyridin-1-yl]butyl}-N-{[5-(trifluoromethyl)pyridin-2-yl]methyl}-1H-1,2,3-triazole-4-carboxamide] the same measures were less than 100 nM and 100 to 500 nM.
Turning to `O=C(CC1CCCCC1)Nc1ccn(CCCCn2cc(C(=O)NCc3cccc(OC(F)(F)F)c3)nn2)c(=O)c1` [Example 45, 1-{4-[4-(2-cyclohexylacetamido)-2-oxo-1,2-dihydropyridin-1-yl]butyl}-N-{[3-(trifluoromethoxy)phenyl]methyl}-1H-1,2,3-triazole-4-carboxamide], in assay [1], the IC50 was less than 100 nM. The compound also yielded an EC50 in the assay with A549 cells of less than 100 nM.
Regarding `Nc1ccn(CCCCn2cc(C(=O)NCc3cccc(OC(F)(F)F)c3)nn2)c(=O)c1` [Example 4, 1-(4-(4-Amino-2-oxopyridin-1(2H)-yl)butyl)-N-(3-(trifluoromethoxy)benzyl)-1H-1,2,3-triazole-4-carboxamide], in assay [1], the IC50 is 500 to 5000 nM. In the assay on A549 cells, this compound registered an EC50 of more than 5000 nM.
For `CCOC(=O)N1CCC(CC(=O)Nc2ccn(CCC(F)Cn3cc(C(=O)NCc4cccc(OC(F)(F)F)c4)nn3)c(=O)c2F)CC1` (centres unmarked) [Example 300, ethyl 4-{[(3-fluoro-1-{3-fluoro-4-[4-({[3-(trifluoro-methoxy)phenyl]methyl}carbamoyl)-1H-1,2,3-triazol-1-yl]butyl}-2-oxo-1,2-dihydropyridin-4-yl)carbamoyl]methyl}piperidine-1-carboxylate] the same measures were less than 100 nM and less than 100 nM.
For `CC(=O)Nc1ccn(CCCCn2cc(C(=O)NCc3cccc(OC(F)(F)F)c3)nn2)c(=O)c1` [Example 50, 1-[4-(4-acetamido-2-oxo-1,2-dihydropyridin-1-yl)butyl]-N-{[3-(trifluoromethoxy)phenyl]methyl}-1H-1,2,3-triazole-4-carboxamide] the same measures were 500 to 5000 nM and more than 5000 nM.
The matching figures for `O=C(Cc1cccc(OC(F)(F)F)c1)Nc1ccn(CCCCn2cc(C(=O)NCc3cccnc3)nn2)c(=O)c1` [Example 69, 1-[4-(2-oxo-4-{2-[3-(trifluoromethoxy)phenyl]acetamido}-1,2-dihydropyridin-1-yl)butyl]-N-(pyridin-3-ylmethyl)-1H-1,2,3-triazole-4-carboxamide]: less than 100 nM and 500 to 5000 nM.
Regarding `C[C@H](NC(=O)Nc1ccn(CCCCc2ccc(NC(=O)Cc3ccccc3)nn2)c(=O)n1)c1ccccc1` [Example 90, N-(6-{4-[2-oxo-4-({[(1S)-1-phenylethyl]carbamoyl}amino)-1,2-dihydropyrimidin-1-yl]butyl}pyridazin-3-yl)-2-phenylacetamide], in assay [1], the IC50 fell in the range of 100 to 500 nM. The EC50 in the assay with A549 cells is more than 5000 nM.
The matching figures for `O=C(Cc1ccccc1)Nc1ccn(CCCCc2nnc(C(=O)NCc3cccc(OC(F)(F)F)c3)s2)c(=O)c1` [Example 438, 5-{4-[2-oxo-4-(2-phenylacetamido)-1,2-dihydropyridin-1-yl]butyl}-N-{[3-(trifluoromethoxy)phenyl]methyl}-1,3,4-thiadiazole-2-carboxamide]: less than 100 nM and less than 100 nM.
With `CNC(=O)c1cn(CC(F)CCn2ccc(NC(=O)C(=O)N3CCCCC3)c(F)c2=O)nn1` (centres unmarked) [Example 429, 1-(2-fluoro-4-{3-fluoro-2-oxo-4-[2-oxo-2-(piperidin-1-yl)acetamido]-1,2-dihydropyridin-1-yl}butyl)-N-methyl-1H-1,2,3-triazole-4-carboxamide], in assay [1], the IC50 was 500 to 5000 nM. In the assay with A549 cells, this compound displayed an EC50 of 500 to 5000 nM.
Consider `O=C(Cc1cccc(OC(F)(F)F)c1)Nc1ccc(CCCCn2ccc(NC(=O)Cc3cccnc3)nc2=O)nn1` [Example 116, N-[6-(4-{2-oxo-4-[2-(pyridin-3-yl)acetamido]-1,2-dihydropyrimidin-1-yl}butyl)pyridazin-3-yl]-2-[3-(trifluoromethoxy)phenyl]acetamide], for which the IC50 in assay [1] is less than 100 nM. Besides, the EC50 with A549 cells is less than 100 nM.
As to `CS(=O)(=O)c1cccc(CNC(=O)c2cn(CCCCn3ccc(NC(=O)Cc4cccc(OC(F)(F)F)c4)cc3=O)nn2)c1` [Example 53, N-[(3-methanesulfonylphenyl)methyl]-1-[4-(2-oxo-4-{2-[3-(trifluoromethoxy)phenyl]acetamido}-1,2-dihydropyridin-1-yl)butyl]-1H-1,2,3-triazole-4-carboxamide], the IC50 in assay [1] is less than 100 nM. Moreover, in the assay on A549 cells, the EC50 was in the range of 500 to 5000 nM.
The matching figures for `CC(C)(C)OC(=O)N[C@H]1CC[C@H](CC(=O)Nc2ccn(CCC(F)Cn3cc(C(=O)NCc4cccc(OC(F)(F)F)c4)nn3)c(=O)c2)CC1` (some centres unmarked) [Example 239, tert-butyl N-[(1r,4r)-4-{[(1-{3-fluoro-4-[4-({[3-(trifluoromethoxy)phenyl]methyl}carbamoyl)-1H-1,2,3-triazol-1-yl]butyl}-2-oxo-1,2-dihydropyridin-4-yl)carbamoyl]methyl}cyclo-hexyl]carbamate]: less than 100 nM and less than 100 nM.
`COc1ccc(CNC(=O)c2ccn(CCCCn3cc(C(=O)NCc4cccc(OC(F)(F)F)c4)nn3)c(=O)c2)c(OC)c1` [Example 61, N-[(2,4-dimethoxyphenyl)methyl]-2-oxo-1-{4-[4-({[3-(trifluoro-methoxy)phenyl]methyl}carbamoyl)-1H-1,2,3-triazol-1-yl]butyl}-1,2-dihydropyridine-4-carboxamide]: the IC50 in assay [1] lay in the range of 100 to 500 nM. In the assay on A549 cells, the EC50 fell in the range of 500 to 5000 nM.
For `O=C(Nc1ccn(CCCCc2nnc(C(=O)NCCO)s2)c(=O)n1)OCc1ccccc1` [Example 119, benzyl N-[1-(4-{5-[(2-hydroxyethyl)carbamoyl]-1,3,4-thiadiazol-2-yl}butyl)-2-oxo-1,2-dihydropyrimidin-4-yl]carbamate] the same measures were 500 to 5000 nM and more than 5000 nM.
The matching figures for `O=C(CN1CCSCC1)Nc1ccn(CCC(F)Cn2cc(C(=O)NCc3cccc(OC(F)(F)F)c3)nn2)c(=O)c1` (centres unmarked) [Example 228, 1-(2-fluoro-4-{2-oxo-4-[2-(thiomorpholin-4-yl)acetamido]-1,2-dihydropyridin-1-yl}butyl)-N-{[3-(trifluoromethoxy)phenyl]methyl}-1H-1,2,3-triazole-4-carboxamide]: less than 100 nM and less than 100 nM.
The matching figures for `COCCOc1cccc(CC(=O)Nc2ccn(CCC(F)Cn3cc(C(=O)NCc4cccc(OC(F)(F)F)c4)nn3)c(=O)c2)c1` (centres unmarked) [Example 185, 1-[2-fluoro-4-(4-{2-[3-(2-methoxyethoxy)phenyl]acetamido}-2-oxo-1,2-dihydropyridin-1-yl)butyl]-N-{[3-(trifluoromethoxy)phenyl]methyl}-1H-1,2,3-triazole-4-carboxamide]: less than 100 nM and 500 to 5000 nM.
For the compound `C[C@H](C(=O)Nc1ccn(CCC(F)Cn2cc(C(=O)NCc3cncc(C(F)(F)F)c3)nn2)c(=O)c1F)c1ccccc1` (some centres unmarked) [Example 349], the IC50 in assay [1] was less than 100 nM. For the same compound, the EC50 with A549 cells was less than 100 nM.
For `CC(C)OC(=O)Nc1ccn(CCC(F)Cn2cc(C(=O)NCc3cccc(OC(F)(F)F)c3)nn2)c(=O)c1F` (centres unmarked) [Example 354], the IC50 in assay [1] was less than 100 nM. Moreover, the EC50 in the assay on A549 cells was less than 100 nM.
